{"source": "patent US10449200B2", "about": "“Combined inhibition of the vitamin D receptor and poly(ADP) ribose polymerase (PARP) in the treatment of cancer” (Institute for Cancer Research, priority 2014, dated 2019)", "key": {"[1]": {"test_system": "BxPC3 cells", "experiment": "Clonogenic survival assay, gemcitabine kill curves", "type": "cell-based, human", "experimental": "(§1) Cell culture and chemicals. Panc1, BxPC3, and CFPAC1 cells were purchased from American Type Culture Collection (ATCC) and banked in house until use. Cell lines were cultured in DMEM/10% FBS supplemented with 2 mM glutamine and 1% penicillin, streptomycin, and kanamycin (PSK) and were maintained at 37° C. in 5% CO2. Charcoal stripped (in house cell culture facility) and dialyzed FBS (Life Technologies; 509 26400-036) were used. Gemcitabine was obtained from the in house pharmacy. Rucaparib and trichostatin A were gifts.\n(§2) Cell viability assays. For clonogenic assays, 1000 cells per well were seeded into 6 well plates on day 0. Cells were treated with gemcitabine at various doses on day 1 for 24 hours, Gemcitabine was washed out on day 2, and cells were allowed to grow for a subsequent 10 days before being fixed (10% methanol+10% acetic acid) and stained with crystal violet (0.4% in 20% ethanol) for colony counting and quantitation. For Rucaparib clonogenic assays, the drug was added at various doses 24 hours after cell plating, and cells were allowed to grow for a subsequent 10 days in the presence of Rucaparib. For TSA clonogenic assays, the drug was added for 4 hours prior to addition of gemcitabine or vehicle for another 18 hours before drugs were washed away, and cells were allowed to grow in drug-free medium for 10 days."}, "[2]": {"test_system": "CFPAC1 cells", "experiment": "Clonogenic survival assay, gemcitabine kill curves", "type": "cell-based", "conditions": "Homo sapiens", "experimental": "as §1, §2"}, "[3]": {"test_system": "BxPC3 cells", "experiment": "TSA clonogenic assay (TSA + gemcitabine)", "type": "cell-based", "conditions": "Homo sapiens", "experimental": "as §2\nTo test the functional relevance of the TSA mediated Rad51 foci formation in the VDR knockdown cells, whether TSA altered the sensitivity to gemcitabine was investigated. […] Parental cell sensitivity to gemcitabine was increased by TSA treatments at the concentrations tested (p=0.02)."}, "[4]": {"test_system": "Panc1 cells", "experiment": "Cell viability (Cell Titer Glo) in siRNA screen", "type": "cell-based", "conditions": "Homo sapiens, PANC-1, read-out: sublethal dose (IC20)", "experimental": "Synthetic lethal RNAi Screen. High throughput RNAi was performed using the validated human genome-wide siRNA library version 2.0 obtained from Dharmacon. This is a SMARTPool (4 siRNAs per gene) library that targeted ^˜23,500 of the annotated genes, and has been validated to deplete mRNA by 75%. Stock siRNA was diluted in siRNA buffer (Dharmacon; B-002000-UB-100) and 10 ng of siRNA was reverse transfected into Panc1 cells seeded into white Corning 384-well plates (Fisher Scientific; 07-201-320) in quadruplicates on day 0. Briefly, diluted Dharmafect1 reagent (Dharmacon; T-2001-01) in OptiMEM (Life Technologies; 51985091) was added to the wells and allowed to complex with siRNA for 20 minutes at room temperature. Panc1 cells in 100 μl of DMEM/10% FBS media without PSK were mixed with 100 μl of transfection mix at 1000 cells/well. Plates were incubated at 37° C. with 5% CO2. […] Total viable cell number was determined by the addition of Cell Titer Glo (Promega; G7573) and relative luminescence units (RLU) were measured using an EnVision plate reader (Perkin Elmer). […] The effect of gemcitabine treatment on viability was measured based on the normalized viabilities in the drug treated and vehicle wells using Limma, Statistical significance was measured by p-values controlled for the false discovery rate (FDR) using the Benjamini-Hochberg step-up method to account for multiple testing. […]"}, "[5]": {"test_system": "Panc1 cells", "experiment": "Time-lapse microscopy of H2B:gfp cells", "type": "cell-based, human", "conditions": "gemcitabine 50 nM", "experimental": "Microscopy. For timelapse studies, Panc1 cells with stable expression of Histone H2B fused at its C-terminus to GFP were seeded into 6-well plates. 24 hours post cell plating, gemcitabine (50 nM) was added before timelapse was commenced. The plate was placed in a 37° C. chamber; bright-field and fluorescent images were taken every 5 minutes for 48 hours using a Nikon TE2000S microscope controlled by Metamorph (Molecular Devices). Three independent movies were conducted for each condition. Movies were allowed to commence for 48 hours for each independent experiment.\nTime-lapse microscopy was used to track the fates of gemcitabine-treated Panc1 cells that stably expressed a H2B:gfp fusion protein that labeled chromosomes. Cells were transfected with siRNAs, treated with vehicle or gemcitabine and monitored every 10 minutes for 48 hours (FIG. 2)."}, "[6]": {"test_system": "BxPC3 cells", "experiment": "Western blot of Rad51 and γH2AX in supernatant and chromatin fractions", "type": "cell-based, human", "conditions": "gemcitabine for 18 hours", "experimental": "Western Blotting. BxPC3, Panc1, and CFPAC1 cells were treated with vehicle or gemcitabine (50 nM) for 18 hrs. Cells were harvested, washed in PBS and lysed in NP40 lysis buffer (1% NP40/PBS/10% glycerol) with protease and phosphatase inhibitors. Protein concentrations were determined with MicroBCA Assay (Pierce Biotechnology; 23224 and 23228) and then SDS sample buffer was added to the lysates. 40 μg of boiled lysates was separated by SDS-PAGE and then transferred onto Immobilon P membrane (Millipore; IPVH00010). Antibodies used for immunoblotting were obtained from: VDR (Epitomics; 3277-1), γH2AX (Upstate Biotechnologies, now Millipore; 05-636), Rad51 (Genetex; GTX70230, gift), p300 (Santa Cruz Biotechnologies; SC-584), and TAO1 kinase (Bethyl Labs; A300-524A)."}}, "note": "pIC50: −log10 of the molar value. Read-outs that look alike come from different tables or passages of the source."}
{"smiles": "Nc1ccn([C@@H]2O[C@H](CO)[C@@H](O)C2(F)F)c(=O)n1", "note": "[gemcitabine]", "values": [{"measurement": "reduction in gemcitabine IC50 after depletion of VDR", "setting": "[1]; BXPC3 cells", "value": "~3", "unit": "fold"}, {"measurement": "pIC50", "setting": "[1]; BxPC3 VDRkd cells transfected with WT-VDR, read-out: IC50 gemcitabine", "value": "~6.59"}, {"measurement": "pIC50", "setting": "[1]; Homo sapiens, BXPC-3, BxPC3, VDR siRNA, read-out: mean IC50 gemcitabine", "value": "~7.22"}, {"measurement": "pIC50", "setting": "[1]; Homo sapiens, BXPC-3, BxPC3, control shRNA, read-out: IC50 gemcitabine", "value": "~7.10"}, {"measurement": "pIC50", "setting": "[1]; Homo sapiens, BXPC-3, BxPC3, control siRNA, read-out: mean IC50 gemcitabine", "value": "~6.70"}, {"measurement": "pIC50", "setting": "[1]; Homo sapiens, BXPC-3, BxPC3, p300 shRNA, read-out: IC50 gemcitabine", "value": "~7.40"}, {"measurement": "pIC50", "setting": "[1]; Homo sapiens, BXPC-3, BxPC3 VDRkd cells transfected with WT-VDR, read-out: IC50 gemcitabine", "value": "~6.52"}, {"measurement": "pIC50", "setting": "[1]; Homo sapiens, BXPC-3, BxPC3 VDRkd cells, WT-VDR co-transfected with AML1/ETO, read-out: IC50 gemcitabine", "value": "~7.10"}, {"measurement": "pIC50", "setting": "[1]; Homo sapiens, BXPC-3, BxPC3 VDRkd cells, WT-VDR co-transfected with S237M mutant, read-out: IC50 gemcitabine", "value": "~7.22"}, {"measurement": "pIC50", "setting": "[1]; Homo sapiens, BXPC-3, BxPC3 VDRkd cells, untransfected, read-out: IC50 gemcitabine", "value": "~7.30"}, {"measurement": "pIC50", "setting": "[1]; Homo sapiens, BXPC-3, BxPC3 VDRkd cells, vector transfected, read-out: IC50 gemcitabine", "value": "~7.30"}, {"measurement": "pIC50", "setting": "[1]; Homo sapiens, BXPC-3, BxPC3 cells (highest VDR levels), read-out: mean IC50 gemcitabine", "value": "~6.70"}, {"measurement": "increase of gemcitabine IC50 over vector controls", "setting": "[1]; wild type VDR transfected into VDR depleted BXPC3 cells", "value": "~6", "unit": "fold"}, {"measurement": "pIC50", "setting": "[2]; CFPAC-1, CFPAC1, VDR depleted (VDR siRNA), read-out: IC50 gemcitabine", "value": "~7.70"}, {"measurement": "pIC50", "setting": "[2]; CFPAC-1, CFPAC1, control siRNA, read-out: mean IC50 gemcitabine", "value": "~7.35"}, {"measurement": "pIC50", "setting": "[2]; CFPAC-1, CFPAC1 cells, read-out: IC50 gemcitabine", "value": "~7.35"}, {"measurement": "pIC50", "setting": "[3]; BXPC-3, BxPC3 VDRkd cells, with TSA (500 nM), read-out: IC50 of gemcitabine", "value": 7.30}, {"measurement": "pIC50", "setting": "[3]; BXPC-3, BxPC3 VDRkd cells, without TSA, read-out: IC50 of gemcitabine", "value": 7.30}, {"measurement": "pIC50", "setting": "[3]; BXPC-3, BxPC3 parental cells, gemcitabine alone, read-out: IC50 gemcitabine", "value": "~6.70"}, {"measurement": "pIC50", "setting": "[3]; BXPC-3, BxPC3 parental cells, gemcitabine plus TSA (500 nM), read-out: IC50 gemcitabine", "value": 7.00}, {"measurement": "IC20", "setting": "[4]", "value": 50, "unit": "nM"}, {"measurement": "cell fate in 48 hour timelapse", "setting": "[5]; Panc1, Chk1 knockdown", "value": "enter mitosis where many died or died shortly after exit from mitosis"}, {"measurement": "cell fate in 48 hour timelapse", "setting": "[5]; Panc1, VDR siRNA", "value": "never entered mitosis, but nevertheless died"}, {"measurement": "cell fate in 48 hour timelapse", "setting": "[5]; Panc1, control siRNA", "value": "stopped proliferation"}, {"measurement": "Rad51 and H2AX in whole cell extracts (supernatants), parental versus BxPC3 VDRkd", "setting": "[6]", "value": "equivalent amounts"}, {"measurement": "Rad51 and phospho-γH2AX in chromatin fractions, VDRkd compared to parental BxPC3", "setting": "[6]", "value": "very low amounts"}]}
